Laboratory results reported in ChEMBL document CHEMBL4196156, “Allosteric Modulators of the M4 Muscarinic Acetylcholine Receptor” (ACS Med Chem Lett, 2018).

Biological target: T1, Muscarinic acetylcholine receptor M4 (Homo sapiens, UniProt P08173)
T1 sequence (P08173 whole entry): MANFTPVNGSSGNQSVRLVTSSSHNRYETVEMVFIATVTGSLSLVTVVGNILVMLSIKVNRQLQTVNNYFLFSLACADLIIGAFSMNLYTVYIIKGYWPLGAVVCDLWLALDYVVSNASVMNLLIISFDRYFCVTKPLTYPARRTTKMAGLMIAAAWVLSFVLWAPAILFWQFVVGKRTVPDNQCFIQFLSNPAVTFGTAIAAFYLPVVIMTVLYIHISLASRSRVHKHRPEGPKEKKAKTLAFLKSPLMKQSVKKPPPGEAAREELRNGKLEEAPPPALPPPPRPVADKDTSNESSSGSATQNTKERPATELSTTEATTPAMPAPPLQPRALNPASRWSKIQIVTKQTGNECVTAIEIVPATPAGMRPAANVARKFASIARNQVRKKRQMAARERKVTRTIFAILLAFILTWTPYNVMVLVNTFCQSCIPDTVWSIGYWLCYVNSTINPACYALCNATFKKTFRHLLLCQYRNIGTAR
Experiment: Positive allosteric modulation of human muscarinic acetylcholine receptor M4 expressed in CHO-K1 cells coexpressing Galphaqi5 assessed as increase in acetylcholine-induced […] incubated for 16 to 20 hrs measured for 3.5 to 4 mins by FLIPR assay
Assay type: functional, cell-based

Structure (SMILES) | EC50 [nM]
Cc1cc2c(nc1N1CC[C@@H](Oc3ccc4c(cnn4C)c3)[C@@H](F)C1)CNC2=O | 17
COc1ccc(OC2CCN(c3nc(CO)nc(Cl)c3C)CC2)cn1 | 25
COc1ccc(OC2CCN(c3nc4oc(=O)[nH]c(=O)c4c(Cl)c3C)CC2)cn1 | 15
